{
  "source": "patent US20050069532A1",
  "about": "“Treatment of bacterial infection with elastase” (priority 2002, published 2005)",
  "key": {"[1]": {"molecular_target": "neutrophil elastase in hNEGP (Homo sapiens, UniProt P08246)", "assay_type": "biochemical"}, "[2]": {"molecular_target": "T1, Neutrophil elastase (Homo sapiens, UniProt P08246)", "T1 sequence (P08246 30-267)": "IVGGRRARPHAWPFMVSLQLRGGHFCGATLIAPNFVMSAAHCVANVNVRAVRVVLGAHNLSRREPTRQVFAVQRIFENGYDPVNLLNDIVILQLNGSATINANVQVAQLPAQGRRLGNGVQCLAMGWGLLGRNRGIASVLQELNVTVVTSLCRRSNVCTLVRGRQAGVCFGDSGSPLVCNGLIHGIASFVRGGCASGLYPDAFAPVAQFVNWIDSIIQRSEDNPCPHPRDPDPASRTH", "assay": "Neutrophil elastase enzymatic assay in hNEGP (N-methoxysuccinyl-Ala-Ala-Pro-Val-p-nitroanilide substrate)", "conditions": "hNEGP pretreated with inhibitor (PMSF 1 mM, rm temp 20 min)", "procedure": "Neutrophil elastase activity of intact neutrophils was determined as previously described (Huang et al., “Effect of Trifluoromethyl Ketone-Based Elastase Inhibitors on Neutrophil Function in Vitro,” J Leukoc Biol 64:322-330 (1998), which is hereby incorporated by reference)."}, "[3]": {"test_system": "Shigella virulence proteins (IpaA, IpaB, IpaC, IcsA)", "assay_type": "biochemical, Shigella flexneri"}, "[4]": {"test_system": "wild-type Shigella flexneri (M90T)", "assay_type": "cell-based"}, "[5]": {"test_system": "MxiA and MxiD", "assay_type": "biochemical, Shigella"}, "[6]": {"test_system": "Secreted proteins from Shigella", "assay_type": "biochemical"}, "[7]": {"test_system": "Secreted proteins from wild type Salmonella typhimurium (strain SL1344)", "assay_type": "biochemical"}, "[8]": {"test_system": "InvG", "sequence (P35672 25-562)": "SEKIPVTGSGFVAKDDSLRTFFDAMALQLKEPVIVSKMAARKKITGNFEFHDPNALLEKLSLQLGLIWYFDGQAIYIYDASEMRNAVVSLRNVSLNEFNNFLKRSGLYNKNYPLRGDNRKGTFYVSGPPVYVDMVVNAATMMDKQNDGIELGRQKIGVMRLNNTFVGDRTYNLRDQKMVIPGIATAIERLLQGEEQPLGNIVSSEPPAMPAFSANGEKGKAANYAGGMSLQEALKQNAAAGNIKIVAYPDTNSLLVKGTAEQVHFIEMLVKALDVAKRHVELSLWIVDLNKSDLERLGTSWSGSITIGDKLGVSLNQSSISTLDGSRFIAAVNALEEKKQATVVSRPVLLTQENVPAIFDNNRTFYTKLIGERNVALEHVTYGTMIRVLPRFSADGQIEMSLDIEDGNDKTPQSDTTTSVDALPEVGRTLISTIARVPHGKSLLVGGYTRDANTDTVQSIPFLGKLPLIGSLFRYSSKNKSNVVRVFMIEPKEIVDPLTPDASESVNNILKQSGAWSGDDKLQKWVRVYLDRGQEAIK"}, "[9]": {"test_system": "OmpA of nonpathogenic Escherichia coli", "sequence (P0A910 22-346)": "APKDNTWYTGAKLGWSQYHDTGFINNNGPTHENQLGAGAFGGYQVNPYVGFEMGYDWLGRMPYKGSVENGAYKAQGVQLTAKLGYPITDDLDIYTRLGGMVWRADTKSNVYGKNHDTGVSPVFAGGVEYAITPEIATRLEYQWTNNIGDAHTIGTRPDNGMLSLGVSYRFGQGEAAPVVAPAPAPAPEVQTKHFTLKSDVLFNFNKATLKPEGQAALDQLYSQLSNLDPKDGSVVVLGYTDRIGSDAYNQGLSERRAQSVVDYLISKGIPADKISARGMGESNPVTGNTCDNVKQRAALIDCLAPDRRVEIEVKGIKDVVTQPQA", "conditions": "4 h with 106 bacteria; cited from earlier work"}, "[10]": {"test_system": "human neutrophils infected with Shigella", "assay_type": "cell-based", "conditions": "20 μM"}, "[11]": {"test_system": "human neutrophils infected with wild type Shigella", "assay_type": "cell-based", "conditions": "20 μM, 10 bacteria/neutrophil"}, "[12]": {"test_system": "human neutrophils infected with Shigella", "conditions": "20 μM, LDH release after 2 h incubation"}, "[13]": {"test_system": "neutrophils", "conditions": "cited from earlier work"}, "[14]": {"test_system": "neutrophils", "assay": "Cytotoxicity of inhibitor by lactate dehydrogenase (LDH) release"}, "[15]": {"test_system": "neutrophil elastase", "conditions": "cited from earlier work"}, "[16]": {"test_system": "Cathepsin G", "conditions": "cited from earlier work"}, "[17]": {"test_system": "Proteinase 3", "conditions": "cited from earlier work"}},
  "note": "Residues, ends and D or L forms follow the SMILES beside them. *: point of attachment. MeOSuc = COC(=O)CCC(=O)*; CH2Cl = ClC*",
  "data": [
    {"molecule": "COC(=O)CCC(=O)N[C@@H](C)C(=O)N[C@@H](C)C(=O)N1CCC[C@H]1C(=O)N[C@H](C(=O)CCl)C(C)C", "note": "[MeOSuc-AAPV-cmk, MeOSucAlaAlaProVal-chloromethyl ketone] (MeOSuc-AAPV-CH2Cl)", "values": [
      {"measurement": "blocking of hNEGP degradation of IpaA, B, C and IcsA", "setting": "[1]", "result": "effectively blocked degradation"},
      {"measurement": "inhibition of neutrophil elastase activity in hNEGP", "setting": "[2]", "result": "completely inhibited"}
    ]},
    {"molecule": "O=S(=O)(F)Cc1ccccc1", "note": "[PMSF, phenylmethylsulfonyl fluoride]", "values": [
      {"measurement": "blocking of hNEGP degradation of IpaA, B, C and IcsA", "setting": "[1]", "result": "blocked the degradation"},
      {"measurement": "inhibition of neutrophil elastase activity in hNEGP", "setting": "[2]", "result": "completely inhibited"}
    ]},
    {"molecule": "Cathepsin G", "values": [
      {"measurement": "degradation of Shigella effectors", "setting": "[3]", "result": "did not degrade"}
    ]},
    {"molecule": "neutrophil elastase", "values": [
      {"measurement": "neutrophil elastase concentration affecting bacterial viability", "setting": "[4]", "result": "> 2,000 nM"},
      {"measurement": "degradation of OmpA in Shigella or E. coli", "setting": "[3]", "result": "not degraded"},
      {"measurement": "neutrophil elastase concentration at which IcsA was degraded", "setting": "[3]", "result": 1.2, "unit": "nM"},
      {"measurement": "neutrophil elastase concentration that cleaved Shigella virulence proteins significantly", "setting": "[3]", "result": "≥ 1.2", "unit": "nM"},
      {"measurement": "degradation of MxiA and MxiD", "setting": "[5]", "result": "not degraded"},
      {"measurement": "cleavage of proteins not associated with virulence (SepA and OspF)", "setting": "[6]", "result": "remained intact"},
      {"measurement": "cleavage of virulence factors (e.g. VirA and the Ipas)", "setting": "[6]", "result": "cleaved"},
      {"measurement": "degradation of FliB and FliC", "setting": "[7]", "result": "not degraded"},
      {"measurement": "degradation of SipA, B, C and HAPs", "setting": "[7]", "result": "degraded"},
      {"measurement": "degradation of InvG", "setting": "[8]", "result": "not degraded"},
      {"measurement": "neutrophil elastase concentration that partially digests OmpA", "setting": "[9]", "result": 2, "unit": "µM"}
    ]},
    {"molecule": "CC(C)C(NC(=O)[C@@H]1CCCN1C(=O)[C@@H](NC(=O)c1ccc(C(=O)NS(=O)(=O)c2ccc(Br)cc2)cc1)C(C)C)C(=O)C(F)(F)F", "note": "(stereo partly drawn) [ICI-200355]", "values": [
      {"measurement": "location of non-invasive Shigella strain in neutrophils incubated with inhibitor", "setting": "[10]", "result": "remained in the phagosome"},
      {"measurement": "location of wild type Shigella in neutrophils pre-incubated with inhibitor", "setting": "[10]; fixed 30 min post-infection", "result": "free in the cytoplasm"},
      {"measurement": "Shigella survival in inhibitor-treated neutrophils versus controls", "setting": "[11]", "result": "survived indeed better"},
      {"measurement": "neutrophil cell death with noninvasive Shigella control strains after inhibitor pretreatment", "setting": "[12]", "result": "no cell death"},
      {"measurement": "effect on ingestion or killing of non-virulent bacteria", "setting": "[13]", "result": "does not affect"},
      {"measurement": "cytotoxicity (LDH release)", "setting": "[14]", "result": "not cytotoxic"}
    ]},
    {"molecule": "SLPI: physiologic inhibitor, human Secretory Leukocyte Protease Inhibitor (protein, UniProt P03973 26-132, looked up) Antileukoproteinase: SGKSFKAGVCPPKKSAQCLRYKKPECQSDWQCPGKKRCCPDTCGIKCLDPVDTPNPTRRKPGKCPVTYGQCLMLNPPNFCEMDGQCKRDLKCCMGMCGKSCVSPVKA", "values": [
      {"measurement": "blocking of hNEGP degradation of IpaA, B, C and IcsA", "setting": "[1]", "result": "effectively blocked degradation"},
      {"measurement": "block of neutrophil elastase", "setting": "[15]", "result": "blocks"},
      {"measurement": "block of Cathepsin G", "setting": "[16]", "result": "blocks"},
      {"measurement": "block of Proteinase 3", "setting": "[17]", "result": "not"},
      {"measurement": "inhibition of neutrophil elastase activity in hNEGP", "setting": "[2]", "result": "completely inhibited"}
    ]}
  ]
}
